Where two headings read alike, the source gives them in different places.
Experiments:
[1] = tested on: rubella virus; assay: rubella virus infection of Jeg-3 cells, dose-response; assay type: cell-based; conditions: Jeg-3 cells, dose-response
Protocol: Since rubella can cause congenital infections, we next developed assays in the human trophoblast cell line Jeg-3.
(§1) A549 cells were plated in 384 well plates at 3,000 cells/well, HBMEC were plated at 7,000 cells/well, or Jeg-3 cells were plated at 3,000 cells/well in 20 μL growth media. The next day, 50 nL of drugs were added to assay wells, yielding a final concentration of 1 µM. The positive control nanchangmycin (n = 32) and the negative control DMSO (n = 32) were spotted on each assay plate. One hour later, cells were infected with rubella virus at a multiplicity of infection (MOI) = 0.234 for A549s, MOI = 0.1 for HBMEC, MOI = 0.05 for Jeg-3 cells). […] HBMECs were spin-infected by centrifuging at 1,250×g for 1 h at 25°C. Cells were fixed at 48 h post infection (hpi) in 4% formaldehyde/phosphate-buffered saline (PBS) for 15 min at room temperature and then washed twice with PBS. Cells were blocked with blocking buffer [2% bovine serum albumin in PBS with 0.1% Triton X-100 (PBST)]) for 1 h and incubated with primary antibody (mouse antirubella E1, CDC, 1 μg/mL) overnight at 4°C. Cells were washed three times with PBST and incubated in secondary (1:1000 antimouse Alexa Fluor 488 and 5 μg/mL Hoechst 33342) for 1 h at room temperature. Cells were washed three times with PBST and imaged using ImageXpress Micro (Molecular Devices). Cells were imaged with a 10× objective capturing four sites per well. The total number of cells and the percentage of infected cells were measured using the MetaXpress 5.3.3 cell scoring module. The aggregated percent infection of the DMSO and 2 µM nanchangmycin control wells on each assay plate were used to calculate Z′-factors. Sample well infection was normalized to aggregated DMSO plate control wells and expressed as percentage of control (POC = [%Infection sample/Average %Infection DMSO] × 100) and Z-score (Z = [%Infection sample − Average %Infection DMSO]/Standard Deviation %Infection DMSO) in Spotfire (PerkinElmer). Candidate hits were selected as compounds with POC <40% and viability >60%, compared with vehicle control.
(§2) Drugs were purchased as powders from Selleckchem, MedchemExpress, and MedKoo and suspended in DMSO. Drugs were arrayed in 8-pt dose–response in 384 well plates. Infections were performed using the screening conditions. DMSO (n = 32) and 2 µM nanchangmycin (n = 16) were included on each validation plate as controls for normalization. Infection at each drug concentration was normalized to aggregated DMSO plate control wells and expressed as POC (POC = %Infection sample/Average %Infection DMSO cont). A nonlinear regression curve fit analysis (GraphPad Prism 8) was performed on POC infection and cell viability using log10 transformed concentration values to calculate IC50 values for infection and CC50 values for cell viability. SI was calculated as a ratio of the drug's CC50 and IC50 values (SI = CC50/IC50).

[2] = tested on: rubella virus; assay: rubella virus infection of HBMEC, dose-response; assay type: cell-based; conditions: dose-response
Protocol: Rubella virus can infect diverse tissues in vivo, and viruses can show tissue-specific dependencies on host factors. […] First, we developed assays in human brain microvascular endothelial cells (HBMECs) as a model for endothelial cells. We again used nanchangmycin to optimize the assay (Fig. 3A and B).
as §1, §2

[3] = tested on: rubella RA27/3 virus; assay: microbe, parasite or virus in culture; assay type: cell-based; conditions: for inhibition at 1 µM: Rubella virus, A549, read-out: inhibition of infection in primary screen; for inhibition of infection in primary screen: 1 µM, compared with vehicle alone; for activity against rubella in A549 cells: dose-response
Source text: (§3) We developed a high-throughput, high-content, cell-based assay to monitor rubella virus infection of the human respiratory cell line A549, as the respiratory tract is infected in humans. […] We infected A549 cells with the rubella virus vaccine strain (RA27/3) and monitored infection using an antibody to the viral glycoprotein E1 (Fig. 1A) ([13]). […] To evaluate the utility of nanchangmycin as a positive control for our assay development, we performed a dose–response assay for nanchangmycin using automated fluorescent microscopy to quantify the cell number as a surrogate for cell viability and percent infection (Fig. 1A).
as §1, with “plate.” for “plate. One hour later, cells were infected with rubella virus at a multiplicity of infection (MOI) = 0.234 for A549s, MOI = 0.1 for HBMEC, MOI = 0.05 for Jeg-3 cells).”, “Cells were washed three times with PBST and incubated in secondary (1:1000 antimouse Alexa Fluor 488 and 5 μg/mL Hoechst 33342) for 1 h at room temperature.” left out
as §2

[4] = tested on: Jeg-3 cells; assay: cell number (cell viability) in Jeg-3 cells; assay type: cell-based, human
Protocol: as §1, with “The aggregated percent infection of the DMSO and 2 µM nanchangmycin control wells on each assay plate were used to calculate Z′-factors.” left out, “Candidate hits were selected as compounds with POC <40% and viability >60%, compared with vehicle control.” left out
Drugs were purchased as powders from Selleckchem, MedchemExpress, and MedKoo and suspended in DMSO. […] Infection at each drug concentration was normalized to aggregated DMSO plate control wells and expressed as POC (POC = %Infection sample/Average %Infection DMSO cont). […] SI was calculated as a ratio of the drug's CC50 and IC50 values (SI = CC50/IC50).

[5] = cell number (cell viability) in A549 cells, Hoechst 33342, automated microscopy; assay type: cell-based, human; conditions: human
Source text: as §3, §1, §2

[6] = tested on: A549 cells; assay: as above; assay type: cell-based, human; conditions: for cell viability in primary screen: 1 µM
Source text: as §3, §1, §2

[7] = tested on: A549 cells; assay: ATPLite assay of cytotoxicity in A549 cells; assay type: cell-based, human
Source text: To determine whether LY2090314 is targeting GSK-3 or potentially a different target, we tested two additional GSK-3 inhibitors, AZD2858 and CHIR99021. […] We also validated the PIKfyve inhibitor APY0201, known to block entry of viruses that use endosomal entry routes and found robust activity (SI = 102). […] All three of the NAMPT inhibitors identified in the screen (STF-118804, GMX1778, and daporinad) validated with high potency (SI > 500).

[8] = A549 cells (infected with rubella virus RA27/3), A549 cells, 1 µM, compared with vehicle alone, read-out: cell viability in primary screen

## Cc1cccc(/C=N/Nc2cc(N3CCOCC3)n3nc(-c4ccncc4)cc3n2)c1 [APY0201]
[1]
  activity against rubella in Jeg-3 cells: active
[2]
  activity against rubella in HBMEC: showed activity
[3]; A549 cells
  selectivity index (SI = CC50/IC50): 102

## O=C1NC(=O)C(c2cnc3ccccn23)=C1c1cn2c3c(cc(F)cc13)CN(C(=O)N1CCCCC1)CC2 [LY2090314]
[4]; Jeg-3 cells
  toxicity in Jeg-3 cells: no toxicity
[1]
  activity against rubella in Jeg-3 cells: no activity
[2]
  activity against rubella in HBMEC: showed activity
[5]; [8]
  viability at 48 h, 1 µM: > 60%
[3]; A549 cells
  selectivity index (SI = CC50/IC50): > 2000
[3]
  inhibition at 1 µM: > 60%

## CCc1c(O)cc(O)c(C(=O)c2ccc(OCCN3CCOCC3)c(OC)c2)c1CC(=O)N(CCOC)CCOC.Cl [KW-2478]
[6]
  cell viability in primary screen: > 60%
[3]; A549 cells
  inhibition of infection in primary screen: > 60%

## CC1(C)CCC(c2ccc(Cl)cc2)=C(CN2CCN(c3ccc(C(=O)NS(=O)(=O)c4ccc(N[C@H](CCN5CCOCC5)CSc5ccccc5)c(S(=O)(=O)C(F)(F)F)c4)cc3)CC2)C1 [navitoclax]
[6]
  toxicity in A549 cells: significant toxicities
[3]; A549 cells
  activity against rubella in A549 cells: little activity

## Cc1ccc(S(=O)(=O)Cc2nc(-c3ccc(C(=O)NCc4cccnc4)cc3)oc2C)cc1 [STF-118804]
[1]
  activity against rubella in Jeg-3 cells: active
[2]
  activity against rubella in HBMEC: showed activity
[6]
  cell viability in primary screen: > 60%
[7]; A549 cells, read-out: IC50 of ATP content depletion (ATPLite)
  IC50: 0.01 µM
[3]; A549 cells
  inhibition of infection in primary screen: > 60%

## COC1=CC(c2cc3ccccc3[nH]2)=N/C1=C\c1[nH]c(C)cc1C [obatoclax]
[1]
  activity against rubella in Jeg-3 cells: active
[2]
  activity against rubella in HBMEC: showed activity
[6]
  toxicity in A549 cells: significant toxicities
[3]; A549 cells
  activity against rubella in A549 cells: little activity

## Cc1c(-c2ccc(N3CCc4cccc(C(=O)Nc5nc6ccccc6s5)c4C3)nc2C(=O)O)cnn1CC12CC3CC(CC(C3)C1)C2 [A-1331852]
[6]
  toxicity in A549 cells: significant toxicities
[3]; A549 cells
  activity against rubella in A549 cells: little activity

## Cc1c[nH]c(-c2cnc(NCCNc3ccc(C#N)cn3)nc2-c2ccc(Cl)cc2Cl)n1 [CHIR99021]
[3]; A549 cells
  activity against rubella in A549 cells: little activity

## O=C(/C=C/c1cccnc1)NCCCCC1CCN(C(=O)c2ccccc2)CC1 [daporinad]
[1]
  activity against rubella in Jeg-3 cells: active
[2]
  activity against rubella in HBMEC: showed activity
[5]; [8]
  viability at 48 h, 1 µM: > 60%
[7]; Homo sapiens, A549 cells, read-out: IC50 of ATP content depletion (ATPLite)
  IC50: 0.01 µM
[3]; A549 cells
  selectivity index (SI = CC50/IC50): > 500
[3]
  inhibition at 1 µM: > 60%

## Cc1cccc(/C=N/Nc2cc(N3CCOCC3)nc(OCCc3ccccn3)n2)c1 [apilimod]
[1]
  activity against rubella in Jeg-3 cells: active
[2]
  activity against rubella in HBMEC: showed activity
[3]; A549 cells
  selectivity index (SI = CC50/IC50): > 8

## Cn1cc(C2=C(c3cccc(N)c3)C(=O)NC2=O)c2ccccc21 [CP21R7]
[6]
  cell viability in primary screen: > 60%
[3]; A549 cells
  inhibition of infection in primary screen: > 60%

## N#Cc1c(Oc2ccc(F)c(NC(=O)Cc3cccc(C(F)(F)F)c3)c2)ccc2nc(NC(=O)C3CC3)sc12 [TAK-632]
[3]; A549 cells
  activity against rubella in A549 cells: little activity

## N#CN=C(NCCCCCCOc1ccc(Cl)cc1)Nc1ccncc1 [GMX1778]
[1]
  activity against rubella in Jeg-3 cells: active
[2]
  activity against rubella in HBMEC: showed activity
[5]; A549 cells, 1 µM, compared with vehicle alone, read-out: cell viability in primary screen
  viability at 48 h, 1 µM: > 60%
[7]; Homo sapiens, A549, read-out: IC50 of ATP content depletion (ATPLite)
  IC50: 0.02 µM
[3]; A549 cells
  selectivity index (SI = CC50/IC50): > 500
[3]
  inhibition at 1 µM: > 60%

## CO[C@H]1CC[C@@H](O[C@H]2C[C@H]([C@]3(C)CC[C@]4(C[C@H](O)[C@@H](C)[C@@H]([C@@H](C)/C=C(\C)C(=O)[C@H](C)C[C@H](C)C(=O)O)O4)O3)O[C@]3(O[C@@H]([C@H]4O[C@@](O)(CO)[C@H](C)C[C@@H]4C)C[C@@H]3C)[C@@H]2C)O[C@@H]1C [nanchangmycin]
[1]
  activity against rubella in Jeg-3 cells: active
[6]; A549 cells, cell number, read-out: half-maximal cytotoxicity concentration (CC50)
  CC50: 3 µM
[3]; A549 cells, 48 hpi, read-out: half-maximal inhibitory concentration (IC50), rubella virus infection
  IC50: 0.03 µM
[3]; A549 cells, MOI = 0.2, 48 hpi, read-out: EC50 (printed in Fig. 1B)
  EC50: 0.03 µM

## COC1=C2C[C@@H](C)C[C@H](OC)[C@H](O)[C@@H](C)/C=C(\C)[C@H](OC(N)=O)[C@@H](OC)/C=C\C=C(/C)C(=O)NC(=CC1=O)C2=O [geldanamycin]
[4]
  toxicity in Jeg-3 cells: high toxicity
[2]
  activity against rubella in HBMEC: showed activity
[5]
  viability at 48 h, 1 µM: > 60%
[3]; A549 cells
  selectivity index (SI = CC50/IC50): > 163
[3]
  inhibition at 1 µM: > 60%

## C/C=C/C[C@@H](C)[C@@H](O)[C@H]1C(=O)N[C@@H](CC)C(=O)N(C)[C@H](C)C(=O)N(CC)[C@@H](C(C)C)C(=O)N[C@@H](C(C)C)C(=O)N(C)[C@@H](CC(C)C)C(=O)N[C@@H](C)C(=O)N[C@H](C)C(=O)N(C)[C@@H](CC(C)C)C(=O)N(C)[C@@H](CC(C)C)C(=O)N(C)[C@@H](C(C)C)C(=O)N1C [alisporivir]
[3]; A549 cells
  activity against rubella in A549 cells: little activity

## CN1CCC(NC(=O)c2cc(-c3c(O)cc(O)cc3Oc3ccc([N+](=O)[O-])cc3)on2)CC1 [NMS-E973]
[3]; A549 cells
  inhibition of infection in primary screen: > 60%

## CN1CCN(S(=O)(=O)c2ccc(-c3cnc(N)c(C(=O)Nc4cccnc4)n3)cc2)CC1 [AZD2858]
[3]; A549 cells
  activity against rubella in A549 cells: little activity

## COc1c(C)c2c(c(O)c1C/C=C(\C)CCC(=O)O)C(=O)OC2 [mycophenolic acid]
[1]
  activity against rubella in Jeg-3 cells: active
[2]
  activity against rubella in HBMEC: showed activity
[6]; human, 48 h
  toxicity in A549 cells: higher toxicity in A549 cells than in Jeg-3 cells
[3]; A549 cells
  selectivity index (SI = CC50/IC50): 6
